Source: US7718651B2, “Inhibitors of FtsZ and uses thereof” (priority 2002, dated 2010)
Converted amounts (≈) assume the structure as drawn. Like-named read-outs stand apart in the source and are kept apart here.

How the values were obtained:
Type in all cases: cell-based
M. tuberculosis H37Rv [1] = assay: microbe, parasite or virus in culture; details: for % Inh / inhibition of growth at 12.5 µg/mL: M. tuberculosis H37Rv; for % Inh: screen concentration 12.5 g/ml [sic], Table 8; for inhibition of growth at 12.5 µg/mL: Mycobacterium tuberculosis, at 12.5% μg/ml (so in the source), read-out: Primary Screen PI (% inhibition of growth); for activity against M. tuberculosis H37Rv in the primary screen: in words
M. tuberculosis H37Rv [2] = assay: MIC99 determination, BACTEC 460 radiometric system; details: for MIC99: Table 3, read-out: Screen 2 MIC99
Vero cells = assay: Cytotoxicity in Vero cells (MTS assay); details: Chlorocebus sabaeus
[3] = Mycobacterium tuberculosis, M. tuberculosis H37Rv, Table 8, read-out: MIC
[4] = Mycobacterium tuberculosis, H37RV
[5] = Vero cells, Table 8, read-out: IC50
[6] = Mycobacterium tuberculosis, M. tuberculosis H37Rv
[7] = 72 h, Vero cells, 72 h exposure, Table 3, read-out: IC50

Compound	% Inh (M. tuberculosis H37Rv [1])	MIC (M. tuberculosis H37Rv [2]; [3])	further results
CCOC(=O)Nc1cc2c(c(N)n1)N=C(c1cc(OC)cc(OC)c1)[C@H](C)O2 [Compound A42]	95%	12.5 µg/mL (≈ 32.3 µM)	
CCOC(=O)Nc1cc2c(c(N)n1)N=C(c1ccc(OCc3ccccc3)cc1)[C@H](C)N2 [Compound A8]	99%	6.25 µg/mL (≈ 14.5 µM)	
CCOC(=O)Nc1cc(NC(C)CCCN(CC)CC)c2ncc(-c3ccc(Cl)cc3)nc2n1.Cl (stereo not drawn) [Compound A5]	99%	1.56 µg/mL	
CCOC(=O)Nc1cc2nc(-c3ccccc3)c(-c3ccccc3)nc2c(NC(=O)OCC)n1 [Compound A51]	92%	> 6.25 µg/mL	
O=C(Nc1cc(Cl)cc(NC(=O)Oc2ccccc2)n1)Oc1ccccc1 [Compound A36]	97%		MIC (M. tuberculosis H37Rv [2]; [4]): 12.5 µg/mL (≈ 32.6 µM)
CCOC(=O)Nc1cc(NCc2ccc(S(N)(=O)=O)cc2)c2nc(-c3ccccc3)c(-c3ccccc3)nc2n1 [Compound A33]	97%	0.39 µg/mL (≈ 0.703 µM)	IC50 (Vero cells; [5]): > 6.25 µg/mL
CCN(CC)S(=O)(=O)c1ccc(CNc2cc(N)nc3nc(-c4ccccc4)c(-c4ccccc4)nc23)cc1 [Compound 4427-143, 4-[(6-Amino-2,3-diphenyl-pyrdo[2,3b]pyrazin-8-yl-amino)-methyl]-N,N-diethyl-benzenesulfonamide]			inhibition of growth at 12.5 µg/mL (M. tuberculosis H37Rv [1]): 99%; activity against M. tuberculosis H37Rv in the primary screen (M. tuberculosis H37Rv [1]): demonstrated activity; MIC99 (M. tuberculosis H37Rv [2]; [6]): 3.13 µg/mL (≈ 5.81 µM)
CCOC(=O)Nc1cc(NC(C)CCCN(CC)CC)c2ncc(-c3ccc(OC)cc3)nc2n1.Cl (stereo not drawn) [Compound A22]	98%	1.56 µg/mL	IC50 (Vero cells): 8.7 µg/mL
CCOC(=O)Nc1cc2c(c(N)n1)N=C(c1ccc(OC)cc1)C(C)N2 (stereo not drawn) [Compound A44]	94%	12.5 µg/mL (≈ 35.2 µM)	IC50 (Vero cells; [5]): 1.53 µg/mL (≈ 4.31 µM)
CCOC(=O)Nc1cc(NC(C)CCCN(CC)CC)c2ncc(-c3ccccc3)nc2n1.Cl.Cl (stereo not drawn) [Compound A37]	96%	12.5 µg/mL	
CCOC(=O)Nc1cc(N)c(N)c(NC(C)C(O)c2ccccc2)n1 (stereo not drawn) [Compound A10]	99%	12.5 µg/mL (≈ 36.2 µM)	IC50 (Vero cells; [5]): > 200 µg/mL
C[C@@H]1Nc2cc(NC(=O)OCc3ccccc3)nc(N)c2N=C1c1ccccc1 [Compound A26]	98%	12.5 µg/mL (≈ 32.3 µM)	IC50 (Vero cells; [5]): 1.51 µg/mL (≈ 3.9 µM)
CCOC(=O)Nc1cc2c(c(N)n1)N=C(c1ccc(OCc3ccccc3)cc1)[C@@H](C)N2 [Compound A9]	99%	6.25 µg/mL (≈ 14.5 µM)	
CC(C)OC(=O)Nc1cc2c(c(N)n1)N=C(c1ccccc1)[C@H](C)N2 [Compound A11]	99%	12.5 µg/mL (≈ 36.8 µM)	IC50 (Vero cells; [5]): 1.51 µg/mL (≈ 4.45 µM)
CCOC(=O)Nc1cc(NC(C)CCCN(CC)CC)c2ncc(-c3ccc(Cl)c(Cl)c3)nc2n1.Cl.Cl (stereo not drawn) [Compound A7]	99%	3.13 µg/mL	IC50 (Vero cells): 1.89 µg/mL
CCOC(=O)Nc1cc(NC(C)CCCN(CC)CC)c2nc(-c3ccc([N+](=O)[O-])cc3)cnc2n1 (stereo not drawn) [Compound A50]	92%		MIC (M. tuberculosis H37Rv [2]; [4]): > 6.25 µg/mL
CCOC(=O)Nc1cc(NC(C)C(O)COc2ccccc2)c(N)c(N)n1 (stereo not drawn) [SRI-7405, [5,6-Diamino-4-(2-hydroxy-1-methyl-3-phenoxy-propylamino)-pyridin-2-yl]-carbamic acid ethyl ester]			inhibition of growth at 12.5 µg/mL (M. tuberculosis H37Rv [1]): 97%; activity against M. tuberculosis H37Rv in the primary screen (M. tuberculosis H37Rv [1]): demonstrated activity; MIC99 (M. tuberculosis H37Rv [2]; [6]): 12.5 µg/mL (≈ 33.3 µM); IC50 (Vero cells; [7]): > 1000 µg/mL
CCOC(=O)Nc1cc(Nc2ccc(Cl)cc2)c2nccnc2n1 [Compound A43]	94%	6.25 µg/mL (≈ 18.2 µM)	
CCOC(=O)Nc1cc(NC(C)CCCN(CC)CC)c2nc(-c3ccccc3)c(-c3ccccc3)nc2n1 (stereo not drawn) [Compound A1]	100%		MIC (M. tuberculosis H37Rv [2]; M. tuberculosis H37Rv, Table 8): 0.2 µg/mL (≈ 0.38 µM); IC50 (Vero cells; [5]): 4.3 µg/mL (≈ 8.16 µM)

Compound	% Inh (M. tuberculosis H37Rv [1])	MIC (M. tuberculosis H37Rv [2]; [3])	further results
CCOC(=O)Nc1cc2[nH]c(-c3ccc4c(c3)OCO4)nc2c(NC(c2ccccc2)c2ccccc2)n1 [Compound A39]	95%	1.56 µg/mL (≈ 3.07 µM)	IC50 (Vero cells; [5]): > 200 µg/mL
CCOC(=O)Nc1cc2c(c(N)n1)N=C(c1ccccc1)C(C)(C)S2.Cl [Compound A40]	95%	> 6.25 µg/mL	
CCOC(=O)Nc1cc(NC(C)C(O)COc2ccccc2)c(N)c(N)n1 (stereo not drawn) [Compound A35]	97%	12.5 µg/mL (≈ 33.3 µM)	IC50 (Vero cells; [5]): > 1000 µg/mL
CCOC(=O)Nc1cc2c(c(N)n1)N=C(c1ccc3c(c1)OCO3)[C@H](C)N2 [Compound A12]	99%	12.5 µg/mL (≈ 33.8 µM)	IC50 (Vero cells; [5]): 1.51 µg/mL (≈ 4.09 µM)
CCOC(=O)Nc1cc(NC(C)CCCN(CC)CC)c2nc(-c3ccc(Cl)cc3)c(-c3ccc(Cl)cc3)nc2n1 (stereo not drawn) [Compound A6]	99%	1.56 µg/mL (≈ 2.62 µM)	
CCOC(=O)Nc1cc(NC/C(=N\O)C23CC4CC(CC(C4)C2)C3)c([N+](=O)[O-])c(N)n1 [Compound A47]	93%	> 12.5 µg/mL	
CCOC(=O)Nc1cc2c(c(N)n1)N=C(c1ccccc1)C(c1ccccc1)O2 (stereo not drawn) [Compound A55]	90%	6.25 µg/mL (≈ 16.1 µM)	
CCOC(=O)Nc1cc(NC(C)CCCN(CC)CC)c2ncc(-c3ccc(C(F)(F)F)cc3)nc2n1 (stereo not drawn) [Compound A23]	98%		MIC (M. tuberculosis H37Rv [2]; [4]): 6.25 µg/mL (≈ 12.1 µM); IC50 (Vero cells): 1.6 µg/mL (≈ 3.09 µM)
CCOC(=O)Nc1cc(NCc2ccc(S(N)(=O)=O)cc2)c2nc(-c3ccccc3)c(-c3ccccc3)nc2n1 [Compound 4427-026-15, [2,3-Diphenyl-8-(4-sulfamoyl-benzylamino)-pyrido[2,3-b]pyrazin-6-yl]-carbamic acid ethyl ester]			inhibition of growth at 12.5 µg/mL (M. tuberculosis H37Rv [1]): 97%; activity against M. tuberculosis H37Rv in the primary screen (M. tuberculosis H37Rv [1]): demonstrated activity; MIC99 (M. tuberculosis H37Rv [2]; [6]): 0.39 µg/mL (≈ 0.703 µM); IC50 (Vero cells; [7]): > 6.25 µg/mL
CCOC(=O)Nc1cc(NC(C)CCCN(CC)CC)c2nc(-c3ccccc3)c(-c3ccccc3)nc2n1.Cl (stereo not drawn) [Compound A21]	98%	0.1 µg/mL	IC50 (Vero cells): 8.3 µg/mL
CCOC(=O)Nc1cc2c(c(N)n1)N=C(c1ccccc1)C(c1ccccc1)O2 (stereo not drawn) [CAO-040, (5-Amino-2,3-diphenyl-2H-pyrido-[4,3b][1,4]oxazin-7-yl)-carbamic acid ethyl ester]			inhibition of growth at 12.5 µg/mL (M. tuberculosis H37Rv [1]): 90%; activity against M. tuberculosis H37Rv in the primary screen (M. tuberculosis H37Rv [1]): demonstrated activity; MIC99 (M. tuberculosis H37Rv [2]; [6]): 6.25 µg/mL (≈ 16.1 µM)
CCCCC1=Nc2c(cc(NC(=O)OCC)nc2N)NC1C (stereo not drawn) [Compound A41]	95%	12.5 µg/mL (≈ 40.9 µM)	IC50 (Vero cells; [5]): 1.51 µg/mL (≈ 4.94 µM)
CCOC(=O)Nc1cc2[nH]c(-c3ccccc3)nc2c(NC(c2ccccc2)c2ccccc2)n1 [Compound A52]	92%	12.5 µg/mL (≈ 27 µM)	IC50 (Vero cells; [5]): > 200 µg/mL
CCOC(=O)Nc1cc2c(c(N)n1)N=C(CN(C)c1ccccc1)CN2 [Compound A53]	92%	12.5 µg/mL (≈ 35.3 µM)	IC50 (Vero cells; [5]): 0.41 µg/mL (≈ 1.16 µM)
CCOC(=O)Nc1cc2c(c(N)n1)N=C(c1ccccc1)CCN2 [Compound A2]	100%	6.25 µg/mL (≈ 19.2 µM)	IC50 (Vero cells; [5]): > 200 µg/mL
CCOC(=O)Nc1cc(NC(C)C(=O)COc2ccccc2)c([N+](=O)[O-])c(N)n1 (stereo not drawn) [Compound A133]	23%		
CCOC(=O)Nc1cc2[nH]c(-c3ccccc3)nc2c(N(CCc2ccccc2)Cc2ccccc2)n1 [Compound A31]	97%		
CCOC(=O)Nc1cc(NCCc2ccccc2)c2nc[nH]c2n1 [Compound A73]	74%		
CCCCC(=O)C(C)Nc1cc(NC(=O)OC)nc(N)c1[N+](=O)[O-] (stereo not drawn) [Compound A180]	3%		

Compound	% Inh (M. tuberculosis H37Rv [1])	MIC (M. tuberculosis H37Rv [2]; [3])	further results
CCOC(=O)Nc1cc2[nH]c(-c3cc(OC)c(OC)c(OC)c3)nc2c(N(CCc2ccccc2)Cc2ccccc2)n1 [Compound A28]	97%		
CCOC(=O)Nc1cc2c(c(N)n1)N=C(c1ccccc1)[C@H](C)O2 [Compound A56]	90%	12.5 µg/mL (≈ 38.3 µM)	
CCOC(=O)Nc1cc2oc(-c3ccc(Cl)cc3)nc2c(N(CCc2ccccc2)Cc2ccccc2)n1 [Compound A137]	21%		
CCOC(=O)Nc1cc(NC(C)CCCN(CC)CC)c2nc(-c3ccc(Cl)cc3)cnc2n1.Cl.Cl (stereo not drawn) [Compound A34]	97%	6.25 µg/mL	IC50 (Vero cells): 2.28 µg/mL
CCOC(=O)Nc1cc2[nH]cnc2c(NC(=O)OCC)n1.Cl [Compound A278]	0%		
CCCCC(Nc1cc(NC(=O)OCC)nc(N)c1N)C(C)O (stereo not drawn) [Compound A174]	5%		
CCOC(=O)Nc1cc2[nH]c(-c3cccc4ccccc34)nc2c(N(CCc2ccccc2)Cc2ccccc2)n1 [Compound A18]	98%		
CCOC(=O)Nc1cc(N)c2ncc(-c3ccc(Cl)cc3)nc2n1 [Compound A262]	0%		
CCOC(=O)Nc1cc(NCCc2ccc(S(N)(=O)=O)cc2)c2ncc(C)nc2n1 [Compound A251]	0%		
CCOC(=O)Nc1cc2c(c(N)n1)N=C(CN(C)c1ccccc1)CN2 [Compound A45]	93%		
CCOC(=O)Nc1cc(N[C@H](C)[C@@H](O)c2ccccc2)c(N)c(N)n1 [Compound A310]	−15%		
CCOC(=O)Nc1cc(NC(C)/C(=N/O)c2ccc(O)cc2)c([N+](=O)[O-])c(N)n1 (stereo not drawn) [Compound A149]	14%		
CCOC(=O)Nc1cc(NCC(C)CN(C)c2ccc(OC)cc2)c([N+](=O)[O-])c(N)n1 (stereo not drawn) [Compound A233]	0%		
COC(=O)Nc1cc(NC(C)/C(=N/O)c2cccc([N+](=O)[O-])c2)c([N+](=O)[O-])c(N)n1 (stereo not drawn) [Compound A177]	4%		
CCOC(=O)Nc1cc2c(c(N)n1)N=C(c1ccc(Cl)cc1)CO2 [Compound A226]	0%		
CCOC(=O)Nc1cc(NCCc2ccccc2)c(N)c(N)n1.Cl.Cl [Compound A95]	59%		
CCOC(=O)Nc1ccc(/N=C/c2ccccc2)cn1 [Compound A223]	0%		
CCOC(=O)Nc1cc(N)c2nc(O)[nH]c2n1 [Compound A275]	0%		
CCOC(=O)Nc1cc2[nH]c(=O)c(-c3ccccc3)nc2c(NC(c2ccccc2)c2ccccc2)n1 [Compound A195]	0%		
